Laboratory results from ChEMBL document CHEMBL1201862, “PubChem BioAssay data set” (2004).
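A five-concentration, 48-hour dose response in 96-well plates underlies each endpoint, interpolated linearly between surrounding concentrations. At the GI50, growth is halved.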 Activity calls are given as the source filed them. No stated cut-off is given here; in the data, active = GI50 up to about 1.1 µM and inactive = higher.

How the values were obtained:
Experiment in all cases: inhibition of tumour cell growth, NCI panel, 48 h
A498 = system: A498
HCT-116 = system: HCT-116
NCI-H522 = system: NCI-H522
IGROV-1 = system: IGROV-1
786-0 = system: 786-0
U-251 = system: U-251
HT-29 = system: HT-29
UACC-257 = system: UACC-257
EKVX = system: EKVX
SR = system: SR
OVCAR-4 = system: OVCAR-4
NCI-H226 = system: NCI-H226
DU-145 = system: DU-145
ACHN = system: ACHN
OVCAR-3 = system: OVCAR-3
PC-3 = system: PC-3
OVCAR-8 = system: OVCAR-8
SF-539 = system: SF-539
LOX IMVI = system: LOX IMVI
HCC 2998 = system: HCC 2998

Structure (SMILES) | GI50 (A498) | GI50 (HCT-116) | GI50 (NCI-H522) | GI50 (IGROV-1) | GI50 (786-0) | GI50 (U-251) | GI50 (HT-29) | GI50 (UACC-257) | GI50 (EKVX) | GI50 (SR) | GI50 (OVCAR-4) | GI50 (NCI-H226) | GI50 (DU-145) | GI50 (ACHN) | GI50 (OVCAR-3) | GI50 (PC-3) | GI50 (OVCAR-8) | GI50 (SF-539) | GI50 (LOX IMVI) | GI50 (HCC 2998)
c1ccc2c(c1)ccc1cc3cc(NCCCCNc4ccc5nc6c(ccc7ccccc76)cc5c4)ccc3nc12 | 1.17 µM (inactive) | 0.176 µM (active) | 1.91 µM (inactive) | 1.41 µM (inactive) | 0.291 µM (active) | 0.199 µM (active) | 2.61 µM (inactive) | 1.72 µM (inactive) | 2.03 µM (inactive) | 0.0179 µM (active) | 2.22 µM (inactive) | 1.73 µM (inactive) | 1.29 µM (inactive) | 1.39 µM (inactive) | 1.99 µM (inactive) | 1.31 µM (inactive) | 0.167 µM (active) | 1.35 µM (inactive) | 1.71 µM (inactive) | 
COc1ccc2c(c1)C(=O)CC(N)C2 (stereo unspecified) |  | > 100 µM (inactive) | > 100 µM (inactive) | > 100 µM (inactive) | > 100 µM (inactive) | > 100 µM (inactive) | > 100 µM (inactive) | > 100 µM (inactive) | 57 µM (inactive) | 55.7 µM (inactive) | > 100 µM (inactive) | 67.8 µM (inactive) | > 100 µM (inactive) | > 100 µM (inactive) | 88.5 µM (inactive) | 42 µM (inactive) | > 100 µM (inactive) |  | > 100 µM (inactive) | 47.6 µM (inactive)
CCC(C)c1cnc(CC(C)C)c(=O)[nH]1 (stereo unspecified) | > 100 µM (inactive) | > 100 µM (inactive) |  | > 100 µM (inactive) | > 100 µM (inactive) | > 100 µM (inactive) | > 100 µM (inactive) | > 100 µM (inactive) | > 100 µM (inactive) | > 100 µM (inactive) | > 100 µM (inactive) |  | > 100 µM (inactive) | > 100 µM (inactive) | > 100 µM (inactive) | > 100 µM (inactive) | > 100 µM (inactive) |  | > 100 µM (inactive) | > 100 µM (inactive)
O=C(CSCC(=O)N/N=C\c1cc(Br)cc(Br)c1O)N/N=C\c1cc(Br)cc(Br)c1O |  | 19.6 µM (inactive) | 11.7 µM (inactive) | 16.6 µM (inactive) | 32.5 µM (inactive) | 4.28 µM (inactive) | 39.6 µM (inactive) | 23.5 µM (inactive) | 37.1 µM (inactive) | 15 µM (inactive) | 14.4 µM (inactive) | 17.7 µM (inactive) | 62.4 µM (inactive) | 12.9 µM (inactive) | 17.6 µM (inactive) | 23.7 µM (inactive) | 18.9 µM (inactive) | 20 µM (inactive) | 6.68 µM (inactive) | 
CCN(CC(COc1ccc2c(c1)[n+]([O-])nc(N)[n+]2[O-])OC(C)=O)C(C)=O (stereo unspecified) | 25.9 µM (inactive) | 78.7 µM (inactive) | 16.4 µM (inactive) | 29.1 µM (inactive) | 93.1 µM (inactive) | > 100 µM (inactive) | > 100 µM (inactive) | 76.7 µM (inactive) | 52.2 µM (inactive) | > 100 µM (inactive) | 50.5 µM (inactive) | > 100 µM (inactive) | > 10 µM (inactive) | > 100 µM (inactive) | 76.2 µM (inactive) | 76.9 µM (inactive) | 42.1 µM (inactive) | > 100 µM (inactive) | 58.3 µM (inactive) | 
CC(C)C1=CC23CCC4C(C)(C(=O)O)CCCC4(C)C2CC1C1C(=O)N(c2ccccc2N2C(=O)C4C5CC6C7(C)CCCC(C)(C(=O)O)C7CCC6(C=C5C(C)C)C4C2=O)C(=O)C13 (stereo unspecified) | 2.93 µM (inactive) | 5.77 µM (inactive) | 8.73 µM (inactive) |  | 14.4 µM (inactive) | 3.16 µM (inactive) | 3.32 µM (inactive) |  | 3.64 µM (inactive) | 3.89 µM (inactive) | 18 µM (inactive) | 12.1 µM (inactive) | 9.4 µM (inactive) | 10.2 µM (inactive) | 10.9 µM (inactive) | 3.23 µM (inactive) | 4.52 µM (inactive) | 3.1 µM (inactive) |  | 4.01 µM (inactive)
CN(C)c1ccc(/C=C(\NC(=O)c2ccccc2)C(=O)Nc2cccc(C(=O)NCCCO)c2)cc1 | > 100 µM (inactive) | > 100 µM (inactive) | > 100 µM (inactive) | > 100 µM (inactive) | > 100 µM (inactive) | > 100 µM (inactive) | > 100 µM (inactive) | > 100 µM (inactive) | > 100 µM (inactive) |  | > 100 µM (inactive) | > 100 µM (inactive) | > 100 µM (inactive) | > 100 µM (inactive) | > 100 µM (inactive) | > 100 µM (inactive) | > 100 µM (inactive) | > 100 µM (inactive) | > 100 µM (inactive) | > 100 µM (inactive)
O=C1CCC2c3ccccc3NCN12 (stereo unspecified) | > 100 µM (inactive) | > 100 µM (inactive) | > 100 µM (inactive) | > 100 µM (inactive) | > 100 µM (inactive) | > 100 µM (inactive) | > 100 µM (inactive) | > 100 µM (inactive) | > 100 µM (inactive) |  | > 100 µM (inactive) | > 100 µM (inactive) | > 100 µM (inactive) | > 100 µM (inactive) | > 100 µM (inactive) | > 100 µM (inactive) | > 100 µM (inactive) | > 100 µM (inactive) | > 100 µM (inactive) | > 100 µM (inactive)
